# Laboratory results reported in patent US20060270618A1, “Novel pharmaceutical composition of interferon gamma or pirfenidone with molecular diagnostics for the improved treatment of interstitial lung diseases” (priority 2001, published 2006).
# Assays:
# [1] = tested on: patients suffering from severe interstitial lung disease (ILD); experiment: Therapy of ILD/IPF patients: gene expression analysis followed by interferon gamma; assay type: in vivo, human
# Excerpt: Biopsies were taken from patients suffering from severe interstitial lung disease (ILD), after […] was given, using the surgical method of bronchoscopy. Obtained tissue probes were stored and processed for isolation of total RNA in RNAlater™ (patent pending), an aqueous, non-toxic tissue storage reagent that stabilizes and protects cellular RNA in intact, unfrozen tissue samples.
# Analysis of Infectious agents in biopsies. As patients with ILD repeatedly suffer from inflammations, biopsied material was tested for the presence of infectious agents. Most dominant was the observation of underlying Herpes virus infections (treated with Ganciclovir) and various bacterial infections (treated with various antibiotics), or few fungal infections.
# Therapy. Therapy with interferon gamma was only started after successful pretreatment of the underlying infections and the assessment of the gene expression of the endogenous disease signiture genes.
# [2] = tested on: patient with histologically proven UIP; experiment: Single patient with histologically proven UIP, CMV pretreatment then interferon gamma (FIG. 1); assay type: in vivo, human; details: failure of immunosuppressive treatment, gene transcription analysis
# Excerpt: FIG. 1: FIG. 1 depicts the total lung capacity (TLC), the partial pressure of arterial oxygen (PaO2), and the forced vital capacity (FVC) of a patient with histologically proven UIP (open lung biopsy) and failure of immunosuppressive treatment treated with interferon gamma. FIG. 1b) depicts the total lung capacity (TLC), the partial pressure of arterial oxygen (PaO2), and the forced vital capacity (FVC) of the same patient with histologically proven UIP (open lung biopsy) and failure of immunosuppressive treatment between time #l and time #2.
# [3] = tested on: bleomycin-induced lung collagen fibrosis; details: bleomycin mice; cited from earlier work
# CTGF = details: after six months of therapy; cited from earlier work
# [4] = tested on: individuals suffering from IPF; details: cited from earlier work
# TGF-β1 = details: after six months of therapy; cited from earlier work
# [5] = after pretreatment of infections and gene expression analysis
substance,measurement,setting,value
"interferon gamma [naturally occurring glycoprotein cytokine, molecular weight about 17.000, also produced by recombinant techniques]",physical exertion capacity,[1]; [5],substantial increase
same,total lung capacity,[1]; [5],statistically highly significant increase
same,partial pressure of arterial oxygen,[1]; at rest,statistically significant increased
same,effectiveness in the combination therapy,"[1]; dose of 1.0-5.0 μg/kg body weight, 1-5 times per week, parenteral",effective
same,disease symptoms,"[1]; human, in vivo",strong decrease
same,survival benefit,[1]; patients with IPF,significant survival benefit
same,clinical outcome of the patient,[2],stabilization of the patient
same,amount of fibrosis,[3],reduction in the amount of fibrosis
same,expression of TGF-β1,[3],reduced expression
same,transcription of CTGF,CTGF,significantly diminished
same,lung function,[4],improvement of lung function
same,transcription of TGF-β1,TGF-β1,significantly diminished
